Laboratory results published in US12491199B2, “Polycannabinoids, compounds, compositions and methods of use” (priority 2020, dated 2025).
“Also recorded” adds a separate entry of the source. Like-named read-outs stand apart in the source and are kept apart here.

Legend:
Type in all cases: physicochemical
[1] = Isothermal degradation by TGA in the presence of oxygen; details: 60 minutes
Protocol: (§1) Materials and Methods: Cannabidiol (CBD) was purchased from EcoGen BioSciences and used as received. Cannabigerol (CBG) was purchased from Mile High Labs, Inc and used as received. All other chemicals were purchased from Sigma Aldrich and used without further purification unless otherwise noted. Unless otherwise indicated, ^1H NMR was collected using a Bruker AVANCE 500 MHz instrument. Thermo Gravimetric Analysis was conducted using a TA Instruments TGA Q-500 and DSC was collected using a TA Instruments DSC Q-20. GPC was taken using a WATERS GPC equipped with a 1515 HPLC Pump and Waters 717Plus Autoinjector. Ultra Performance Liquid Chromatograph tandem Mass Spectrometry (UPLC/MS/MS) was conducted using a Waters Acquity UPLC-TQD equipped with a PDA detector.
Isothermal degradation: Samples were heated in pre-tared pans while in the presence of oxygen to either 150, 160, 180 or 220° C. at a heating rate of 10° C./minute. They were left at the high temperature for 60 minutes. The degradation rate was determined from the slope of the weight % vs Time plots.

[2] = Non-isothermal thermogravimetric analysis (TGA), onset of thermal degradation
Protocol: as §1
Thermogravimetric Analysis (TGA): Non-Isothermal degradation: Samples were heated in pre-tared platinum pans under nitrogen atmosphere to 700° C. at a heating rate of 10° C./minute.

[3] = Heat induced by-product analysis (open vials, 175° C., 30 minutes, convection oven; NMR, UPLC/MS/MS); details: for remaining residue after heating: 100 mg sample, open vial, convection oven; for remaining residue after heating / NMR analysis of the sample residues after heating / amount of by-product formation (LC/MS): 175° C., 30 minutes
Protocol: Heat induced by-product analysis experiment: Open vials containing 100 mg of CBD, CBD-Diacetate, and Poly(CBD) were heated at 175° C. for 30 minutes in a laboratory convection oven. After heating, the remaining residue was weighed at 89.64 mg, 91.35 mg, and 99.86 mg for each compound, respectively. Samples were then analyzed using ^1H NMR. […] Ultra performance liquid chromatograph tandem mass spectrometry (UPLC/MS/MS) was conducted to compare formed by-products against nine known cannabinoid standards.
Popular types of consumer cannabis products include tinctures, vaporizer liquids, and baked foods, while potential pharmaceutical products include oil extracts, solutions, and tablet. In each case, cannabinoids within the products are subjected to elevated temperatures for short periods of time during manufacturing or, in the case of vaporizer liquids, when being consumed. FIGS. 5-6 show the rates of degradation after short-term exposure to temperatures from 150-220° C. Table 1 includes the values of onset temperatures for thermal degradation and degradation rates for each compound. The phytocannabinoids degraded at rates from 0.2 wt % per minute to ˜10 wt % per minute at 150° C. and 220° C., respectively. Thermal degradation of both poly(cannabinoid)s remained less than 0.1 wt % over the same range, stabilizing the phytocannabinoid. Open vials containing 100 mg samples of CBD, CBD-diacetate, and poly(CBD-adipate) were heated at 175° C. in a laboratory convection oven for 30 minutes, after which 89.64 mg, 91.35, and 99.86 mg remained of each sample, respectfully. […]. Conversion of phytocannabinoids to poly(cannabinoid)s offers a preservative effect, eliminating the production of additional cannabinoids.

[4] = nitrogen atmosphere, heated to 700° C. at 10° C./minute
[5] = heated under the same conditions after purging thoroughly with argon

C=C(C)[C@@H]1CCC(C)=C[C@H]1c1c(OC(C)=O)cc(CCCCC)cc1OC(C)=O [CBD-Diacetate, Cannabidiol-Diacetate]
Degradation rate from isothermal TGA ([1]; 150° C.): 0.54 weight % loss per minute
Degradation rate from isothermal TGA ([1]; 160° C.): 0.54 weight % loss per minute
Degradation rate from isothermal TGA ([1]; 180° C.): 0.84 weight % loss per minute
Degradation rate from isothermal TGA ([1]; 220° C.): 5.65 weight % loss per minute
Td, onset for thermal degradation according to non-isothermal TGA [2, 4]: 185 °C
extrapolated onset degradation temperature (TGA) ([2]; non-isothermal TGA, FIGS. 3-4): 185 °C
remaining residue after heating [3]: 91.35 mg
NMR analysis of the sample residues after heating [3]: New peaks formed
amount of by-product formation (LC/MS) [3]: 25.32%
NMR analysis of the sample residues after heating ([3]; listed as CBD-diacetate): formation of additional compounds

C=C(C)[C@@H]1CCC(C)=C[C@H]1c1c(O)cc(CCCCC)cc1O [CBD, cannabidiol]
Degradation rate from isothermal TGA ([1]; 150° C.): 0.18 weight % loss per minute
Degradation rate from isothermal TGA ([1]; 160° C.): 0.43 weight % loss per minute
Degradation rate from isothermal TGA ([1]; 180° C.): 0.94 weight % loss per minute
Degradation rate from isothermal TGA ([1]; 220° C.): 9.09 weight % loss per minute
Td, onset for thermal degradation according to non-isothermal TGA [2, 4]: 184 °C
extrapolated onset degradation temperature (TGA) ([2]; non-isothermal TGA, FIGS. 3-4): 184 °C
remaining residue after heating [3]: 89.64 mg
NMR analysis of the sample residues after heating [3]: New peaks formed; also recorded: formation of additional compounds
amount of by-product formation (LC/MS) [3]: 10.68%
Δ8-THC detected using 1H NMR [3, 5]: 0.21%
Δ9-THC detected using 1H NMR [3, 5]: 0.16%

CCCCCc1cc(OC(C)=O)c(C/C=C(\C)CCC=C(C)C)c(OC(C)=O)c1 [CBG-Diacetate, Cannabigerol-Diacetate]
Degradation rate from isothermal TGA ([1]; 150° C.): 0.08 weight % loss per minute
Degradation rate from isothermal TGA ([1]; 160° C.): 0.11 weight % loss per minute
Degradation rate from isothermal TGA ([1]; 180° C.): 0.49 weight % loss per minute
Degradation rate from isothermal TGA ([1]; 220° C.): 1.92 weight % loss per minute
Td, onset for thermal degradation according to non-isothermal TGA [2, 4]: 223 °C

CCCCCc1cc(O)c(C/C=C(\C)CCC=C(C)C)c(O)c1 [CBG, cannabigerol]
Td, onset for thermal degradation according to non-isothermal TGA [2]: 191 °C
extrapolated onset degradation temperature (TGA) [2]: 191 °C
